What was measured:
[1] = target: T1, CETP (Homo sapiens, UniProt P11597); assay: CETP fluorescence test with enriched CETP; assay type: biochemical; conditions: enriched CETP fraction from human plasma; transfer of fluorescent cholesterol ester between liposomes; 37° C. for 4 h
T1 construct: CETP is obtained in partially purified form from human plasma by differential centrifugation and column chromatography and used for the test; from tissue; host or cells: human plasma
T1 sequence (P11597 18-493): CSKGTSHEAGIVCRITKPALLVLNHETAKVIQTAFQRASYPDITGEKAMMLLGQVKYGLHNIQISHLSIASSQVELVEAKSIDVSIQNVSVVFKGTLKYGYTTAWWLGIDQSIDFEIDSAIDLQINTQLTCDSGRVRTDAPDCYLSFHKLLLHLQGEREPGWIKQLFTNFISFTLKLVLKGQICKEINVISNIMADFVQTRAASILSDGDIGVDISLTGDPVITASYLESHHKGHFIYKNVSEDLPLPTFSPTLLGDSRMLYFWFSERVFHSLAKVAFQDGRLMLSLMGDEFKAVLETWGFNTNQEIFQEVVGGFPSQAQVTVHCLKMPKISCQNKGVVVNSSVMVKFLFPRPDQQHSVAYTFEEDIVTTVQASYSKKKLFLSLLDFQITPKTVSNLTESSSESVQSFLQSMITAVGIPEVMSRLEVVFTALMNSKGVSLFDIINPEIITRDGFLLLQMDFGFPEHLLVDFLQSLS
Procedure: (§1) CETP is obtained in partially purified form from human plasma by differential centrifugation and column chromatography and used for the test. To this end, human plasma is adjusted to a density of 1.21 g per ml using NaBr and centrifuged at 4° C. at 50 000 rpm for 18 h. The bottom fraction (d>1.21 g/ml) is applied to a Phenyl-Sepharose 26/10 HP fast flow-column (Pharmacia), washed with PBS buffer and then eluted with distilled water. 10 parts of PBS buffer and 1% (w/v) BSA are added to the eluate. The CETP-active fractions are pooled.
Measurement of the CETP-catalyzed transfer of a fluorescent cholesterol ester between liposomes [modified according to the procedure of Bisgaier et al., J. Lipid Res. 34, 1625 (1993)]:
For the production of the donor liposomes, 1 mg of cholesteryl 4,4-difluoro-5,7-dimethyl-4-bora-3a,4a-diaza-s-indacene-3-dodecanoate (cholesteryl BODIPY® FL C12, Molecular Probes) is dissolved in 2 ml of chloroform with 5.35 mg of triolein and 6.67 mg of phosphatidylcholine. The solvent is removed at medium temperature in a SpeedVac and the residue is dried under high vacuum for 1 h. The residue is then dissolved in 600 μl of dioxane with gentle warming in an ultrasonic bath and this solution is added very slowly with ultrasonication to 63 ml of 50 mM Tris/HCl, 150 mM NaCl, 2 mM EDTA buffer pH 7.3 at room temperature. The suspension is then ultrasonicated under an N2 atmosphere for 30 minutes in the Branson ultrasonic bath at about 50 watts, the temperature being kept at about 20° C.
The acceptor liposomes are obtained analogously from 86 mg of cholesteryl oleate, 20 mg of triolein and 100 mg of phosphatidylcholine dissolved in 1.2 ml of dioxane and 114 ml of the above buffer by ultrasonication at 50 watts (20° C.) for 30 minutes.
For testing, a test mix consisting of 1 part of above buffer, 1 part of donor liposomes and 2 parts of acceptor liposomes is used.
50 μl of test mix are treated with 48 μl of enriched CETP fraction (1-3 μg), obtained from human plasma by means of hydrophobic chromatography, and 2 μl of a solution of the substance to be investigated in DMSO and incubated at 37° C. for 4 h.
The change in the fluorescence at 485/535 nm is a measure of the CE transfer; the inhibition of the transfer in comparison to the control batch without substance is determined.

[2] = target: T1, CETP; assay: CETP-SPA test; assay type: biochemical; conditions: transfer of 3H-cholesterol ester from human HDL to biotinylated LDL; 37° C. for 18 h
Procedure: as §1
For testing of the CETP activity, the transfer of ^3H-cholesterol ester from human HD lipoproteins to biotinylated LD lipoproteins is measured. The reaction is ended by addition of streptavidin-SPA® beads (Amersham) and the transferred radioactivity is determined directly in a liquid scintillation counter.
In the test batch, 10 μl of HDL-3H-cholesterol ester (about 50 000 cpm) are incubated at 37° C. for 18 h with 10 μl of biotin-LDL (Amersham) in 50 mM Hepes/0.15 M NaCl/0.1% bovine serum albumin (RSA)/0.05% NaN3 pH 7.4 containing 10 μl of CETP (1 mg/ml) and 3 μl of a solution of the substance to be tested (dissolved in 10% DMSO/1% RSA). 200 μl of the SPA-streptavidin bead solution (TRKQ 7005) are then added, incubated further with shaking for 1 h and then measured in a scintillation counter. Corresponding incubations with 10 μl of buffer, 10 μl of CETP at 4° C. and 10 μl of CETP at 37° C. serve as controls.
The activity transferred in the control batches with CETP at 37° C. is rated as 100% transfer. The substance concentration at which this transfer is reduced to half is specified as the IC50 value.

[3] = system: transgenic hCETP mice; assay: Measurement of the in vivo activity in transgenic hCETP mice; conditions: perorally once a day on 3 days, percentage change compared with the starting value
Procedure: To determine the oral action on lipoproteins and triglycerides, test substance is administered perorally to transgenic mice [Dinchuk et al., BBA, 1295-1301 (1995)] using a stomach tube once a day on 3 days. For this purpose, the substances are dissolved in 10% Solutol HS 15/10% ethanol/80% of a 0.9% strength sodium chloride solution; the administration volume is generally 10 ml per kg of body weight. Before the start of the experiment, blood is withdrawn from the mice retro-orbitally in order to determine cholesterol and triglycerides in the serum. The serum is obtained as described above for hamsters by incubation at room temperature for 30 min and subsequent centrifugation at 6000 g. On the day after the last administration of substance, blood is again withdrawn from the mice in order to determine lipoproteins and triglycerides. The changes in the parameters measured are expressed as the percentage change compared with the starting value.

Row | IC50 [1] | IC50 [2] | Compound | % increase of HDL after 3 d (dose: 3 × 3 mg/kg) [3]
1 | 32 nM | 20 nM | CC(C)c1cc2c(c(-c3ccc(F)cc3)c1[C@@H](F)c1ccc(C(F)(F)F)cc1)[C@@H](O)CC(C)(C)O2 [Example 7, (4S)-5-(4-Fluorophenyl)-6-{(S)-fluoro[4-(trifluoromethyl)phenyl]methyl}-7-isopropyl-2,2-dimethylchroman-4-ol] | 67%
2 | 77 nM | 22 nM | CC(C)c1cc2c(c(-c3ccc(F)cc3)c1[C@@H](O)c1ccc(C(F)(F)F)cc1)[C@@H](O)CC1(CCC1)O2 [Example 28, (4S)-5-(4-Fluorophenyl)-6-{(S)-hydroxy[4-(trifluoromethyl)phenyl]methyl}-7-isopropyl-3,4-dihydrospiro[chromen-2,1′-cyclobutan]-4-ol] | 25%
3 | 18 nM | 12 nM | CC(C)c1cc2c(c(-c3ccc(F)cc3)c1[C@@H](F)c1ccc(C(F)(F)F)cc1)[C@@H](O)CC1(CCC1)O2 [Example 30, (4S)-5-(4-Fluorophenyl)-6-{(S)-fluoro[4-(trifluoromethyl)phenyl]methyl}-7-isopropyl-3,4-dihydro-spiro[chromen-2,1′-cyclobutan]-4-ol] | 83%
4 | 53 nM | 20 nM | CC(C)c1cc2c(c(-c3ccc(F)cc3)c1[C@H](F)c1ccc(C(F)(F)F)cc1)[C@@H](O)CC1(CCC1)O2 [Example 31, (4S)-5-(4-fluorophenyl)-6-{(R)-fluoro[4-(trifluoromethyl)phenyl]methyl}-7-isopropyl-3,4-dihydro-spiro[chromen-2,1′-cyclobutan]-4-ol] | 
5 | 19 nM | 4 nM | CC(C)c1cc2c(c(-c3ccc(F)cc3)c1Cc1ccc(C(F)(F)F)cc1)[C@@H](O)CC1(CCC1)O2 [Example 32, (4S)-5-(4-Fluorophenyl)-7-isopropyl-6-[4-(trifluoromethyl)benzyl]-3,4-dihydrospiro[chromen-2,1′-cyclobutan]-4-ol] | 31%
6 | 59 nM | 16 nM | CC(C)c1cc2c(c(-c3ccc(F)cc3)c1C(=O)c1ccc(C(C)(C)C)cc1)[C@@H](O)CC1(CCC1)O2 [Example 33, (4-tert-Butylphenyl)[(4S)-5-(4-fluorophenyl)-4-hydroxy-7-isopropyl-3,4-dihydrospiro[chromen-2,1′-cyclobutan]-6-yl]methanone] | 
7 | 14 nM | 5 nM | CC(C)c1cc2c(c(-c3ccc(F)cc3)c1[C@@H](O)c1ccc(C(C)(C)C)cc1)[C@@H](O)CC1(CCC1)O2 [Example 34, (4S)-6-[(S)-(4-tert-Butylphenyl)(hydroxy)methyl]-5-(4-fluorophenyl)-7-isopropyl-3,4-dihydro-spiro[chromen-2,1′-cyclobutan]-4-ol] | 
8 | 800 nM | 400 nM | CC(C)c1cc2c(c(-c3ccc(F)cc3)c1[C@H](O)c1ccc(C(C)(C)C)cc1)[C@@H](O)CC1(CCC1)O2 [Example 35, (4S)-6-[(R)-(4-tert-butylphenyl)(hydroxy)methyl]-5-(4-fluorophenyl)-7-isopropyl-3,4-dihydro-spiro[chromen-2,1′-cyclobutan]-4-ol] | 
9 | 36 nM | 30 nM | CC(C)c1cc2c(c(-c3ccc(F)cc3)c1C(=O)c1ccc(OC(F)(F)F)cc1)[C@@H](O)CC1(CCC1)O2 [Example 37, [(4S)-5-(4-Fluorophenyl)-4-hydroxy-7-isopropyl-3,4-dihydrospiro[chromen-2,1′-cyclobutan]-6-yl]-[4-(trifluoromethoxy)phenyl]methanone] | 
10 | 19 nM | 15 nM | CC(C)c1cc2c(c(-c3ccc(F)cc3)c1Cc1ccc(OC(F)(F)F)cc1)[C@@H](O)CC1(CCC1)O2 [Example 41, (4S)-5-(4-Fluorophenyl)-7-isopropyl-6-[4-(trifluoromethoxy)benzyl]-3,4-dihydrospiro[chromen-2,1′-cyclobutan]-4-ol] | 
11 | 61 nM | 100 nM | CC(C)c1cc2c(c(C3CCCC3)c1[C@H](F)c1ccc(C(F)(F)F)cc1)[C@@H](O)CC1(CCC1)O2 [Example 43, (4S)-5-cyclopentyl-6-{(R)-fluoro[4-(trifluoromethyl)phenyl]methyl}-7-isopropyl-3,4-dihydrospiro-[chroman-2,1′-cyclobutan]-4-ol] | 
12 | 45 nM | 31 nM | O=C(c1ccc(C(F)(F)F)cc1)c1c(C2CCCC2)cc2c(c1-c1ccc(F)cc1)[C@@H](O)CC1(CCC1)O2 [Example 44] | 
13 | 26 nM | 21 nM | O[C@@H](c1ccc(C(F)(F)F)cc1)c1c(C2CCCC2)cc2c(c1-c1ccc(F)cc1)[C@@H](O)CC1(CCC1)O2 [Example 45] | 
14 | 50 nM | 38 nM | CC(C)(C)c1ccc(C(=O)c2c(C3CCCC3)cc3c(c2-c2ccc(F)cc2)[C@@H](O)CC2(CCC2)O3)cc1 [Example 47] | 
15 | 33 nM | 14 nM | CC(C)(C)c1ccc([C@H](O)c2c(C3CCCC3)cc3c(c2-c2ccc(F)cc2)[C@@H](O)CC2(CCC2)O3)cc1 [Example 48] | 
16 | 30 nM | 15 nM | CC(C)(C)c1ccc(Cc2c(C3CCCC3)cc3c(c2-c2ccc(F)cc2)[C@@H](O)CC2(CCC2)O3)cc1 [Example 50] | 
17 | 42 nM | 100 nM | O=C(c1ccc(OC(F)(F)F)cc1)c1c(C2CCCC2)cc2c(c1-c1ccc(F)cc1)[C@@H](O)CC1(CCC1)O2 [Example 51] | 
18 | 198 nM | 30 nM | O[C@@H](c1ccc(OC(F)(F)F)cc1)c1c(C2CCCC2)cc2c(c1-c1ccc(F)cc1)[C@@H](O)CC1(CCC1)O2 [Example 52] | 
19 | 27 nM | 4 nM | CC(C)c1cc2c(c(-c3ccc(F)cc3)c1[C@@H](O)c1ccc(C(F)(F)F)cc1)[C@@H](O)CC1(CC1)O2 [Example 55] | 
20 | 300 nM | 68 nM | CC(C)c1cc2c(c(-c3ccc(F)cc3)c1[C@H](F)c1ccc(C(F)(F)F)cc1)[C@@H](O)CC1(CC1)O2 [Example 58] | 
